These results are taken from US10766898B2, “Therapeutic compound for pain and synthesis thereof” (priority 2015, dated 2020).

In this assay the test system is heat hypersensitivity of λ-carrageenan-injected right hind paws of mice. The assay is described as follows: λ-carrageenan-induced paw inflammation, heat hypersensitivity on hotplate (57° C.), time until first response. The class given is in vivo. To be noted: for Response time at 3.5 h, avg: average of n=5 animals; for Response time at 3.5 h, avg / Response time at 3.5 h: 10 mg/kg ip 30 min before 1% λ-carrageenan, hotplate 57° C., 3.5 h after carrageenan; for Response time at 3.5 h: individual animal, 10 mg/kg; for average response time compared with pretreatment baseline response time: n=5 animals, 10 mg/kg ip, 3.5 h after λ-carrageenan. Here is the method: Intra plantar injection of 1% […] may be used to induce local inflammation to the paws of test subject mice. In general, local inflammation is expressed as paw swelling and increased sensitivity to heat stimuli. Therefore, the effect of a test item on changes in heat hypersensitivity can be assessed. Using the protocol set forth, the therapeutic effect of the compounds of Formula XVIII and XXII were evaluated.
Animals were dosed with a test compound at time zero (control where given vehicle only) at 10 mg/kg ip (test item was dissolved in a 20% […] solution). After 30 minutes the animals were slightly anesthetized with isoflurane, and 0.1 ml of a 1% λ-carrageenan suspension in Distilled Water was injected into the plantar side of the right hind paws of the mice. After 3.5 hours after the λ-carrageenan administration, the animals were placed on a hotplate apparatus maintained at 57° C., and the time until the first response was recorded.

Where “and” joins values, the source holds several entries; their conditions need not be identical. Equal values may be shown once.

As to `COCC(=O)N1C[C@@H]2C[C@@H]3C1[C@@H](O)[C@H](C2)N3Cc1cccc(C(N)=O)c1` (relative stereo) [Compound of Formula XXII, 3-(((2S*,3S*,6R*,7aR*)-3-hydroxy-4-(2-methoxyacetyl)octahydro-1H-2,6-methanopyrrolo[3,2-b]pyridin-1-yl)methyl)benzamide], the “Response time at 3.5 h, avg” value is 12.2 s; the “Response time at 3.5 h” value was 12 sec (2×) and 14 sec and 13 sec and 10 sec; the “average response time compared with pretreatment baseline response time” value is recorded as “exceeded the pretreatment baseline response time”.
Turning to `O=C(O[C@H]1[C@@H]2[C@@H]3C[C@@H](C[C@H]1N3Cc1ccc3c(c1)OCO3)CN2C(=O)c1ccc(F)cn1)C1CC1` (relative stereo) [Compound of Formula XVIII, (2R*,3R*,3aS*,6S*,7aS*)-1-(benzo[d][1,3]dioxol-5-ylmethyl)-4-(5-fluoropicolinoyl)octahydro-1H-2,6-methanopyrrolo[3,2-b]pyridin-3-yl cyclopropanecarboxylate], the “Response time at 3.5 h, avg” value was 14.6 s; the “Response time at 3.5 h” value was 16 sec (2×) and 14 sec and 12 sec and 15 sec; the “average response time compared with pretreatment baseline response time” value was “exceeded the pretreatment baseline response time”.
